Like-named read-outs stand apart in the source and are kept apart here.
Experiments:
[1] = system: aCD3/aCD28-stimulated human PBMCs; assay: Cytokine production in aCD3/aCD28 stimulated human PBMCs; type: cell-based; details: PBMC, 18 h
Procedure, shortened: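 Ficoll-isolated human PBMCs at 1e6 cells/mL in X-Vivo15, stimulated with soluble anti-CD3/CD28 (OKT3 and 28.2, 1 μg/mL each) plus compound for 18 h at 37° C. Supernatant cytokines quantified by MSD or HTRF.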

[2] = system: aCD3/aCD28-stimulated human CD4+-T-cells; assay: IL-2 production and activation markers in aCD3/aCD28 stimulated isolated human CD4+-T-cells; type: cell-based; details: IL-2 production at 3 μM compound
Procedure, shortened: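 CD4+ T cells isolated from buffy-coat PBMCs by microbeads were plated in Xvivo medium (1.5*10^5 cells/well) and stimulated with anti-CD3/28 mAbs plus compound. IL-2 measured by ELISA in supernatants at 24 h or 48 h; CD25 and proliferation by flow cytometry, CD69 at 24 h. Activity classes based on IL-2 at 3 μM compound.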

[3] = enhancement of IFN-γ production, read-out: Activity Class IFN-γ
[4] = enhancement of IL-2 production, read-out: Activity Class IL-2

Row | SMILES | EC50 [1, 3] [µM] | EC50 [1, 4] [µM] | Activity Class CD4+ [2]
1 | Cl.N[C@H]1CSc2cc(F)c(C(=O)NCC3CCOCC3)cc2N(Cc2ccc(Cl)c(F)c2)C1=O [Example 56, (3R)-3-amino-5-[(4-chloro-3-fluorophenyl)methyl]-8-fluoro-N-(oxan-4-ylmethyl)-4-oxo-2,3,4,5-tetrahydro-1,5-benzothiazepine-7-carboxamide hydrochloride] | < 1.58 | 1.58 to 5.01 | C (IL-2 production at 3 μM compound concentration between 2-fold increase as compared to mean IL-2 production of stimulated cells in the absence of compounds and <2 ng/mL)
2 | CCCCNC(=O)c1cc2c(cc1F)SC[C@H](N)C(=O)N2Cc1ccc(Cl)c(F)c1 [Example 57, (3R)-3-amino-N-butyl-5-[(4-chloro-3-fluorophenyl)methyl]-8-fluoro-4-oxo-2,3,4,5-tetrahydro-1,5-benzothiazepine-7-carboxamide] | < 1.58 | 1.58 to 5.01 | C (IL-2 production at 3 μM compound concentration between 2-fold increase as compared to mean IL-2 production of stimulated cells in the absence of compounds and <2 ng/mL)
3 | CCCONC(=O)c1cc2c(cc1F)SC[C@H](N)C(=O)N2Cc1ccc(Cl)cc1.Cl [Example 58, (3R)-3-amino-5-[(4-chlorophenyl)methyl]-8-fluoro-4-oxo-N-propoxy-2,3,4,5-tetrahydro-1,5-benzothiazepine-7-carboxamide hydrochloride] | > 5.01 | > 5.01 | C (IL-2 production at 3 μM compound concentration between 2-fold increase as compared to mean IL-2 production of stimulated cells in the absence of compounds and <2 ng/mL)
4 | CC(C)CONC(=O)c1cc2c(cc1F)SC[C@H](N)C(=O)N2Cc1ccc(Cl)cc1.Cl [Example 59, (3R)-3-amino-5-[(4-chlorophenyl)methyl]-8-fluoro-N-(2-methylpropoxy)-4-oxo-2,3,4,5-tetrahydro-1,5-benzothiazepine-7-carboxamide hydrochloride] | 1.58 to 5.01 | 1.58 to 5.01 | C (IL-2 production at 3 μM compound concentration between 2-fold increase as compared to mean IL-2 production of stimulated cells in the absence of compounds and <2 ng/mL)
5 | CC(C)CNNC(=O)c1cc2c(cc1F)SC[C@H](N)C(=O)N2Cc1ccc(Cl)cc1.Cl [Example 60, (3R)-3-amino-5-[(4-chlorophenyl)methyl]-8-fluoro-N′-(2-methylpropyl)-4-oxo-2,3,4,5-tetrahydro-1,5-benzothiazepine-7-carbohydrazide hydrochloride] | < 1.58 | 1.58 to 5.01 | C (IL-2 production at 3 μM compound concentration between 2-fold increase as compared to mean IL-2 production of stimulated cells in the absence of compounds and <2 ng/mL)
6 | CC(C)C(C)NC(=O)c1ccc2c(c1)N(Cc1ccc(Cl)cc1)C(=O)[C@@H](N)CS2.Cl (stereo partly drawn) [Example 63, (3R)-3-amino-5-[(4-chlorophenyl)methyl]-N-(3-methylbutan-2-yl)-4-oxo-2,3,4,5-tetrahydro-1,5-benzothiazepine-7-carboxamide hydrochloride] | 1.58 to 5.01 | 1.58 to 5.01 | B (IL-2 production at 3 μM compound concentration between 2-10 ng/mL)
7 | C=CCCNC(=O)c1ccc2c(c1)N(Cc1ccc(Cl)cc1)C(=O)[C@@H](N)CS2.Cl [Example 64, (3R)-3-amino-N-(but-3-en-1-yl)-5-[(4-chlorophenyl)methyl]-4-oxo-2,3,4,5-tetrahydro-1,5-benzothiazepine-7-carboxamide hydrochloride] | 1.58 to 5.01 | > 5.01 | C (IL-2 production at 3 μM compound concentration between 2-fold increase as compared to mean IL-2 production of stimulated cells in the absence of compounds and <2 ng/mL)
8 | CC(C)CNNC(=O)c1ccc2c(c1)N(Cc1ccc(Cl)cc1)C(=O)[C@@H](N)CS2.Cl [Example 65, (3R)-3-amino-5-[(4-chlorophenyl)methyl]-N′-(2-methylpropyl)-4-oxo-2,3,4,5-tetrahydro-1,5-benzothiazepine-7-carbohydrazide hydrochloride] | 1.58 to 5.01 | 1.58 to 5.01 | C (IL-2 production at 3 μM compound concentration between 2-fold increase as compared to mean IL-2 production of stimulated cells in the absence of compounds and <2 ng/mL)
9 | CCCCNC(=O)c1ccc2c(c1)N(Cc1ccc(Cl)cc1)C(=O)[C@@H](N)C[S+]2[O-].Cl (stereo partly drawn) [Example 66, (3R)-3-amino-N-butyl-5-[(4-chlorophenyl)methyl]-1,4-dioxo-2,3,4,5-tetrahydro-1λ^4,5-benzothiazepine-7-carboxamide hydrochloride] | < 1.58 | 1.58 to 5.01 | C (IL-2 production at 3 μM compound concentration between 2-fold increase as compared to mean IL-2 production of stimulated cells in the absence of compounds and <2 ng/mL)
10 | Cl.N[C@H]1CS(=O)(=O)c2cc(F)c(C(=O)NOc3ccccc3)cc2N(Cc2ccc(OC(F)(F)F)cc2)C1=O [Example 74, (3R)-3-amino-8-fluoro-1,1,4-trioxo-N-phenoxy-5-{[4-(trifluoromethoxy)phenyl]methyl}-2,3,4,5-tetrahydro-1λ^6,5-benzothiazepine-7-carboxamide hydrochloride] | 1.58 to 5.01 | > 5.01 | C (IL-2 production at 3 μM compound concentration between 2-fold increase as compared to mean IL-2 production of stimulated cells in the absence of compounds and <2 ng/mL)
11 | CC(C)CONC(=O)c1cc2c(cc1F)S(=O)(=O)C[C@H](N)C(=O)N2Cc1ccc(Cl)cc1.Cl [Example 75, (3R)-3-amino-5-[(4-chlorophenyl)methyl]-8-fluoro-N-(2-methylpropoxy)-1,1,4-trioxo-2,3,4,5-tetrahydro-1λ^6,5-benzothiazepine-7-carboxamide hydrochloride] | 1.58 to 5.01 | > 5.01 | B (IL-2 production at 3 μM compound concentration between 2-10 ng/mL)
12 | CC(C)NC(=O)c1ccc2c(c1)N(Cc1ccc(Cl)cc1)C(=O)[C@@H](N)CS2(=O)=O.Cl [Example 79, (3R)-3-amino-5-[(4-chlorophenyl)methyl]-1,1,4-trioxo-N-(propan-2-yl)-2,3,4,5-tetrahydro-1λ^6,5-benzothiazepine-7-carboxamide hydrochloride] | 1.58 to 5.01 | > 5.01 | B (IL-2 production at 3 μM compound concentration between 2-10 ng/mL)
13 | Cl.N[C@H]1CS(=O)(=O)c2ccc(C(=O)NCCCC(F)(F)F)cc2N(Cc2ccc(Cl)cc2)C1=O [Example 80, (3R)-3-amino-5-[(4-chlorophenyl)methyl]-1,1,4-trioxo-N-(4,4,4-trifluorobutyl)-2,3,4,5-tetrahydro-1λ^6,5-benzothiazepine-7-carboxamide hydrochloride] | < 1.58 | < 1.58 | A (IL-2 production at 3 μM compound concentration >10 ng/mL)
14 | CC(C)C(C)NC(=O)c1ccc2c(c1)N(Cc1ccc(Cl)cc1)C(=O)[C@@H](N)CS2(=O)=O.Cl (stereo partly drawn) [Example 83, (3R)-3-amino-5-[(4-chlorophenyl)methyl]-N-(3-methylbutan-2-yl)-1,1,4-trioxo-2,3,4,5-tetrahydro-1λ^6,5-benzothiazepine-7-carboxamide hydrochloride] | < 1.58 | > 5.01 | B (IL-2 production at 3 μM compound concentration between 2-10 ng/mL)
15 | C=CCCNC(=O)c1ccc2c(c1)N(Cc1ccc(Cl)cc1)C(=O)[C@@H](N)CS2(=O)=O.Cl [Example 84, (3R)-3-amino-N-(but-3-en-1-yl)-5-[(4-chlorophenyl)methyl]-1,1,4-trioxo-2,3,4,5-tetrahydro-1λ^6,5-benzothiazepine-7-carboxamide hydrochloride] | < 1.58 | 1.58 to 5.01 | B (IL-2 production at 3 μM compound concentration between 2-10 ng/mL)
16 | Cl.N[C@H]1CS(=O)(=O)c2cc(F)c(C(=O)NC3CC3)cc2N(Cc2ccc(Cl)cc2)C1=O [Example 85, (3R)-3-amino-5-[(4-chlorophenyl)methyl]-N-cyclopropyl-8-fluoro-1,1,4-trioxo-2,3,4,5-tetrahydro-1λ^6,5-benzothiazepine-7-carboxamide hydrochloride] | 1.58 to 5.01 | 1.58 to 5.01 | C (IL-2 production at 3 μM compound concentration between 2-fold increase as compared to mean IL-2 production of stimulated cells in the absence of compounds and <2 ng/mL)
17 | Cl.N[C@H]1CS(=O)(=O)c2cc(F)c(C(=O)NC3CCC3)cc2N(Cc2ccc(Cl)cc2)C1=O [Example 86, (3R)-3-amino-5-[(4-chlorophenyl)methyl]-N-cyclobutyl-8-fluoro-1,1,4-trioxo-2,3,4,5-tetrahydro-1λ^6,5-benzothiazepine-7-carboxamide hydrochloride] | < 1.58 | 1.58 to 5.01 | B (IL-2 production at 3 μM compound concentration between 2-10 ng/mL)
18 | CC(C)NC(=O)c1cc2c(cc1F)S(=O)(=O)C[C@H](N)C(=O)N2Cc1ccc(Cl)cc1F.Cl [Example 87, (3R)-3-amino-5-[(4-chloro-2-fluorophenyl)methyl]-8-fluoro-1,1,4-trioxo-N-(propan-2-yl)-2,3,4,5-tetrahydro-1λ^6,5-benzothiazepine-7-carboxamide hydrochloride] | > 5.01 | > 5.01 | C (IL-2 production at 3 μM compound concentration between 2-fold increase as compared to mean IL-2 production of stimulated cells in the absence of compounds and <2 ng/mL)
